*1 amine or outer side, *2 acyl side, *3 side chain or, on linkers, in order; H or OH if unused. Where a SMILES comes first, the peptide text is derived from it. Bridges are numbered along the chain shown (N, C = ends). [ ]: non-standard residue; d: D form. The star is where a group is joined. hTyr(3S-OH,4S-OH,3'-OSO3H) = N[C@H](C(=O)O)[C@H](O)[C@@H](O)c1ccc(O)c(OS(=O)(=O)O)c1; Orn(4R-OH,5R-OH) = O=C([C@H](C[C@@H](O)[C@@H](O)N[*:3])N[*:1])[*:2]; Pro(3S-OH,4S-Me) = C[C@H]1CN[C@H](C(=O)O)[C@H]1O; X1 = CCCCCOc1ccc(-c2cc(-c3ccc(C(=O)*)cc3)no2)cc1; Gln(3R-OH) = NC(=O)C[C@@H](O)[C@H](N)C(=O)O; Hyp = O=C(O)[C@@H]1C[C@@H](O)CN1

The target in one experiment is T1, Androgen receptor (Homo sapiens, UniProt P10275).
T1 sequence (P10275 whole entry): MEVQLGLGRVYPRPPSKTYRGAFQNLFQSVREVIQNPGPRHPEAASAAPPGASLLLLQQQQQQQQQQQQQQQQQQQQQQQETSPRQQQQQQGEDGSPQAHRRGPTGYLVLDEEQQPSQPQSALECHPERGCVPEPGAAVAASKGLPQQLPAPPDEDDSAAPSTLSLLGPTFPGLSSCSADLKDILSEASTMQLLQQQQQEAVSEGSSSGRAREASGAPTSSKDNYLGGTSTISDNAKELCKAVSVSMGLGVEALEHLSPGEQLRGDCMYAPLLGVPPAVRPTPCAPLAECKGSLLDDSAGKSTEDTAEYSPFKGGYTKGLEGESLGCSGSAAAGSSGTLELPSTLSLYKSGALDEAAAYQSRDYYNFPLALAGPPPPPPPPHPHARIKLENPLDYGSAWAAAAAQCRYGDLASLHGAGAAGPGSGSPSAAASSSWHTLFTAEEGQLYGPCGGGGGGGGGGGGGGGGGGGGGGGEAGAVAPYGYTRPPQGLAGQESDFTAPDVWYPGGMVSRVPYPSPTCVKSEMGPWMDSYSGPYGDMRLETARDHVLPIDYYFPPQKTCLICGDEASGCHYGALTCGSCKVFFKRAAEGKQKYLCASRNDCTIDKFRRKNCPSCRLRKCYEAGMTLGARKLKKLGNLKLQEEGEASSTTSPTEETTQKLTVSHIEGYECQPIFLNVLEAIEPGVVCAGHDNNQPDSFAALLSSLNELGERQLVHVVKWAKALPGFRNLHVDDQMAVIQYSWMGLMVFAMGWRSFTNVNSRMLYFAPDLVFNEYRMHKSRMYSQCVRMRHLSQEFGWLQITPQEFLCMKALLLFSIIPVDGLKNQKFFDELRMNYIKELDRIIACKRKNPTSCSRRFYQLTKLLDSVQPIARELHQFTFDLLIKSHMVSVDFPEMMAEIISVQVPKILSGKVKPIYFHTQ

For experiment [1], the target named is T2, 5-hydroxytryptamine receptor 1A (Homo sapiens, UniProt P08908).
T2 sequence (P08908 whole entry): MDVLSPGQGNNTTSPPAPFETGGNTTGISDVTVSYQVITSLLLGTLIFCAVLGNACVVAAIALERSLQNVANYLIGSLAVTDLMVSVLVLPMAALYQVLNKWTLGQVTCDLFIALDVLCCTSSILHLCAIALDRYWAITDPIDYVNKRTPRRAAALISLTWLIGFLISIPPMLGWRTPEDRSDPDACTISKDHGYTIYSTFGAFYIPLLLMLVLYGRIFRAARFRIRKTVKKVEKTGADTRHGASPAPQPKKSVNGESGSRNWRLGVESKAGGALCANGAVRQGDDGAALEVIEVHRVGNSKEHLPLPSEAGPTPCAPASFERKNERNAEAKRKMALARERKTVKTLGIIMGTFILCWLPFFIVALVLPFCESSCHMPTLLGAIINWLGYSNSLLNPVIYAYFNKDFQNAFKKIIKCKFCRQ

The next experiment has as its target Cannabinoid receptor 1 (Homo sapiens, UniProt P21554).
The target of experiment [2] is T3, Endothelin receptor type B (Homo sapiens, UniProt P24530).
T3 sequence (P24530 whole entry): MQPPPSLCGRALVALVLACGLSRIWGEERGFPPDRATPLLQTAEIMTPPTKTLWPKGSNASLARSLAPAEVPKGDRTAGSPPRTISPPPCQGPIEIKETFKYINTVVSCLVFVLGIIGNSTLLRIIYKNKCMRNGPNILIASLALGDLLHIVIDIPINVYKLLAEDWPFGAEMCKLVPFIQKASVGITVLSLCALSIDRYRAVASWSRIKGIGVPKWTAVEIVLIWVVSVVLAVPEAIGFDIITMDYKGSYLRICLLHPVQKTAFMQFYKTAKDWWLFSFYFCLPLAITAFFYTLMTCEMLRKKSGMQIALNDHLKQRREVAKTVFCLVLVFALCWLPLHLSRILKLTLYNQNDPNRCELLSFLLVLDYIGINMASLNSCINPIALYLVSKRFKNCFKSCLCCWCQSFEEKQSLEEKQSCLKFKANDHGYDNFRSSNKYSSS

In another experiment the target is D(1A) dopamine receptor (Homo sapiens, UniProt P21728).
A further experiment has as its target T4, B1 bradykinin receptor (Homo sapiens, UniProt P46663).
T4 sequence (P46663 whole entry): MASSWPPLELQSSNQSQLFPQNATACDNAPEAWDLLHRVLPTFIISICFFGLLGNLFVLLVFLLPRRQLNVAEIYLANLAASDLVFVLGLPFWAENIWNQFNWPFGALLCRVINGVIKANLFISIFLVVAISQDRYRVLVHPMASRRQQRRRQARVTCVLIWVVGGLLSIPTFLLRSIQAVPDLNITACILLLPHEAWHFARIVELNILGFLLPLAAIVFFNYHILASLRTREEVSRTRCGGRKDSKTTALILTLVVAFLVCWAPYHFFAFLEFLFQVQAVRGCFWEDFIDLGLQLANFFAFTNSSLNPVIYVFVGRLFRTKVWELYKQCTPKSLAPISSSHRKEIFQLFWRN
Further: assay procedure not described here.

D(1A) dopamine receptor, sequence (P21728 whole entry): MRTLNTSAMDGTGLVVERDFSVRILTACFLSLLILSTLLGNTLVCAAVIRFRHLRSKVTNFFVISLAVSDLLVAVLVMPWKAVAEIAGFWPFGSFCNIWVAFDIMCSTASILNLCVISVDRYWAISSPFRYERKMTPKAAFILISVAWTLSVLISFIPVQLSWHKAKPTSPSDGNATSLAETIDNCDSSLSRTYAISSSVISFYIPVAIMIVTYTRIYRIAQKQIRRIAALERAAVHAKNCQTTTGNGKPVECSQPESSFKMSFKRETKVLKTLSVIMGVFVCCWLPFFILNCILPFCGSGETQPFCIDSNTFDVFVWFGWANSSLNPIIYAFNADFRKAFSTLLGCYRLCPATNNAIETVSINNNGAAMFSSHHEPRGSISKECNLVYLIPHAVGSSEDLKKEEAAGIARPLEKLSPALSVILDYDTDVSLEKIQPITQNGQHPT
Cannabinoid receptor 1, sequence (P21554 whole entry): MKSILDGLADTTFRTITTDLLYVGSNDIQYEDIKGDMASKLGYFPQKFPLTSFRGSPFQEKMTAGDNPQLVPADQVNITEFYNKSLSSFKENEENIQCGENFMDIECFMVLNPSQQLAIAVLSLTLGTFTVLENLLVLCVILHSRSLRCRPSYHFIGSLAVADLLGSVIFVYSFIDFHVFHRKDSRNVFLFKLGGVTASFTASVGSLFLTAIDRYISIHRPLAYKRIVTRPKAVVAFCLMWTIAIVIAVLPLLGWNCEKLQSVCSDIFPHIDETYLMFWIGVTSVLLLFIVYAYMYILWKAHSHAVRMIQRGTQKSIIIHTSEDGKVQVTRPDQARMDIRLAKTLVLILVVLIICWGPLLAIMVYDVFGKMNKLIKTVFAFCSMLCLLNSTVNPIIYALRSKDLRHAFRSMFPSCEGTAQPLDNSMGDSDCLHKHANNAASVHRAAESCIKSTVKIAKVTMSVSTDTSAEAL

Consider `COc1nccnc1NS(=O)(=O)c1ccc(N)cc1`, for which, on Androgen receptor, the AC50 was over 30 µM.

On to `NC(=O)c1nc(F)c[nH]c1=O`, for which, on Androgen receptor, the AC50 was over 30 µM.

As to `CN(C)CCCN1C(=O)c2cc([N+](=O)[O-])ccc2Oc2ccccc21`, the half-maximal activity concentration (AC50) on Androgen receptor was over 30 µM.

With `CC1(C)S[C@@H]2[C@H](NC(=O)[C@H](N)c3ccc(O)cc3)C(=O)N2[C@H]1C(=O)O` [AMOXICILLIN], the AC50 in experiment [1] was over 10 µM; on Cannabinoid receptor 1, over 30 µM; in experiment [2] it was over 30 µM; on D(1A) dopamine receptor, over 10 µM; at B1 bradykinin receptor, over 30 µM.

On to `O=C1CN2Cc3c(ccc(Cl)c3Cl)N=C2N1` [ANAGRELIDE], for which the half-maximal activity concentration (AC50) (in experiment [1]; on Cannabinoid receptor 1) was over 10 µM throughout.

`O=C(O)COc1nn(Cc2ccccc2)c2ccccc12` [BENDAZAC]: on Androgen receptor, the AC50 is over 30 µM.

With `CCc1oc2ccccc2c1C(=O)c1cc(Br)c(O)c(Br)c1` [BENZBROMARONE], the AC50 (in experiment [1]; at Cannabinoid receptor 1) was over 10 µM each time.

Consider `Cc1ccc([C@@H]2O[C@H](CO)[C@@H](O)[C@H](O)[C@H]2O)cc1Cc1ccc(-c2ccc(F)cc2)s1` [CANAGLIFLOZIN ANHYDROUS], for which the half-maximal activity concentration (AC50) on Androgen receptor was over 30 µM.

Compound `[H]/N=C(\N/C(=N/[H])NCCCCCCNC(=N)NC(=N)Nc1ccc(Cl)cc1)Nc1ccc(Cl)cc1` [CHLORHEXIDINE] came in with an AC50 on Cannabinoid receptor 1 of 3.07 µM.

On to `Clc1cccc(Cl)c1N=C1NCCN1` [CLONIDINE], for which the AC50 in experiment [1] was over 10 µM; at Cannabinoid receptor 1 it was over 10 µM; in experiment [2] it was over 30 µM; on D(1A) dopamine receptor, over 10 µM; at B1 bradykinin receptor it was over 30 µM.

In turn, `CN(CC(=O)O)C(=N)N` [CREATINE] gave a half-maximal activity concentration (AC50) on Androgen receptor of over 30 µM.

The compound `N[C@@H](CSSC[C@H](N)C(=O)O)C(=O)O` [CYSTINE] returned a concentration at half-maximal activity (AC50) on Androgen receptor of over 30 µM.

For the compound `CN1C[C@H](C(=O)N[C@]2(C)O[C@@]3(O)[C@@H]4CCCN4C(=O)[C@H](Cc4ccccc4)N3C2=O)C[C@@H]2c3cccc4[nH]cc(c34)C[C@H]21` [DIHYDROERGOTAMINE], the half-maximal activity concentration (AC50) in experiment [1] was 0.0126 µM; on Cannabinoid receptor 1, over 10 µM; in experiment [2], over 30 µM; on D(1A) dopamine receptor, 5.47 µM; on B1 bradykinin receptor, over 30 µM.

As for `CNCC[C@H](Oc1cccc2ccccc12)c1cccs1` [DULOXETINE], at Cannabinoid receptor 1, the AC50 is over 10 µM.

In turn, `CC(C)(N)C(=O)N[C@H](Cc1c[nH]c2ccccc12)C(=O)N[C@H](Cc1c[nH]c2ccccc12)NC=O` [MACIMORELIN] registered an AC50 on Androgen receptor of over 30 µM.

On Androgen receptor, `C=C1c2c(Cl)ccc(O)c2C(=O)C2=C(O)[C@]3(O)C(=O)C(C(N)=O)=C(O)[C@@H](N(C)C)[C@@H]3[C@@H](O)[C@H]12` [MECLOCYCLINE] returned an AC50 of over 30 µM.

For the compound `Cc1cnc(NC(=O)C2=C(O)c3ccccc3S(=O)(=O)N2C)s1` [MELOXICAM], the half-maximal activity concentration (AC50) in experiment [1] was over 10 µM; on Cannabinoid receptor 1, over 10 µM; in experiment [2], over 30 µM; at D(1A) dopamine receptor, over 10 µM; at B1 bradykinin receptor it was over 30 µM.

Regarding `Cc1cc2c(OCC(O)CNC(C)C)cccc2[nH]1` (stereo unspecified) [MEPINDOLOL], the half-maximal activity concentration (AC50) at Androgen receptor is over 30 µM.

Take `CC(=O)/N=c1/sc(S(N)(=O)=O)nn1C` [METHAZOLAMIDE]: the AC50 at Cannabinoid receptor 1 is over 10 µM.

For `CCCCCOc1ccc(-c2cc(-c3ccc(C(=O)N[C@H]4C[C@@H](O)[C@@H](O)NC(=O)[C@@H]5[C@@H](O)[C@@H](C)CN5C(=O)[C@H]([C@H](O)CC(N)=O)NC(=O)[C@H]([C@H](O)[C@@H](O)c5ccc(O)c(OS(=O)(=O)O)c5)NC(=O)[C@@H]5C[C@@H](O)CN5C(=O)[C@H]([C@@H](C)O)NC4=O)cc3)no2)cc1` [MICAFUNGIN] (X1-[Orn(4R-OH,5R-OH)]T[Hyp][hTyr(3S-OH,4S-OH,3'-OSO3H)][Gln(3R-OH)][Pro(3S-OH,4S-Me)]; lactam 1-C), the half-maximal activity concentration (AC50) on Androgen receptor was over 30 µM.

Turning to `CCOc1ccc2ccccc2c1C(=O)N[C@@H]1C(=O)N2[C@@H]1SC(C)(C)[C@@H]2C(=O)O` [NAFCILLIN], the AC50 at Androgen receptor is over 30 µM.

At D(1A) dopamine receptor, `CNCCC=C1c2ccccc2CCc2ccccc21` [NORTRIPTYLINE] came in with an AC50 of 0.386 µM.

As to `COc1ccnc(C[S+]([O-])c2nc3ccc(OC(F)F)cc3[nH]2)c1OC` (stereo unspecified) [PANTOPRAZOLE], the half-maximal activity concentration (AC50) in experiment [1] is over 10 µM; on Cannabinoid receptor 1, over 10 µM; in experiment [2], over 30 µM; at D(1A) dopamine receptor, over 10 µM; at B1 bradykinin receptor, over 30 µM.

`CNC[C@H](O)c1cccc(O)c1` [PHENYLEPHRINE]: the AC50 is over 10 µM in experiment [1]; over 10 µM on Cannabinoid receptor 1; over 30 µM in experiment [2]; over 10 µM at D(1A) dopamine receptor; over 30 µM at B1 bradykinin receptor.

Compound `CC(C)COc1ccc(CNC(=O)N(Cc2ccc(F)cc2)C2CCN(C)CC2)cc1` [PIMAVANSERIN] came in with an AC50 on Androgen receptor of over 30 µM.

`CC(C)[N+](C)(CCOC(=O)C1c2ccccc2Oc2ccccc21)C(C)C` [PROPANTHELINE]: the AC50 at Androgen receptor is over 30 µM.

Consider `CNC(=O)c1cc(Oc2ccc(NC(=O)Nc3ccc(Cl)c(C(F)(F)F)c3)c(F)c2)ccn1` [REGORAFENIB], for which, on Androgen receptor, the half-maximal activity concentration (AC50) was over 30 µM.

Regarding `NC(=O)c1ncn([C@@H]2O[C@H](CO)[C@@H](O)[C@H]2O)n1` [RIBAVIRIN], the AC50 at Cannabinoid receptor 1 is over 10 µM.

Consider `CN(C)C(=O)c1nc(CNC(=O)CN)n(-c2ccc(Cl)cc2C(=O)c2ccccc2Cl)n1` [RILMAZAFONE], for which, at Androgen receptor, the AC50 is over 30 µM.

`CCCCCCCCNC(C)C(O)c1ccc(SC(C)C)cc1` (stereo unspecified) [SULOCTIDIL]: the concentration at half-maximal activity (AC50) at Androgen receptor was over 30 µM.

For the compound `CCCCNc1ccc(C(=O)OCCN(C)C)cc1` [TETRACAINE], the AC50 in experiment [1] was over 10 µM; at Cannabinoid receptor 1 it was over 10 µM; in experiment [2], over 30 µM; at D(1A) dopamine receptor, over 10 µM; at B1 bradykinin receptor, over 30 µM.

On to `Cn1c(=O)c2[nH]cnc2n(C)c1=O` [THEOPHYLLINE], for which the half-maximal activity concentration (AC50) in experiment [1] was over 10 µM; on Cannabinoid receptor 1, over 10 µM; in experiment [2], over 30 µM; at D(1A) dopamine receptor, over 10 µM; at B1 bradykinin receptor, over 30 µM.

`CC1(C)O[C@@H]2[C@@H](CO[C@@]3(COS(N)(=O)=O)OC(C)(C)O[C@@H]23)O1` [TOPIRAMATE]: the AC50 is over 10 µM in experiment [1]; over 10 µM on Cannabinoid receptor 1; over 30 µM in experiment [2]; over 10 µM at D(1A) dopamine receptor; over 30 µM on B1 bradykinin receptor.

For orientation: AC50 means the concentration giving half of the maximal activity seen. High values mean activity only at high concentration, low ones activity at low concentration.

The values above are taken from ChEMBL document CHEMBL5291721, “A preclinical secondary pharmacology resource illuminates target-adverse drug reaction associations of marketed drugs” (Nat Commun, 2023).
